The target in experiment [1] is Lck (h) (Homo sapiens, UniProt P06239). In words: Lck Human  Kinase Enzymatic Radiometric Assay. Type of experiment: biochemical. The conditions noted are these: read-out: Lck IC50 nM Range*. A digest of the protocol: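 Substrate 33P-incorporation measured by scintillation counting after spotting on P30 filtermat and phosphoric acid washes. Human Lck reacted 40 min at RT in 50 mM Tris pH 7.5 with 10 mM MgAcetate, [gamma-33P]-ATP, 250 uM Cdc2 peptide, 0.1 mM EGTA and 0.1 mM Na3VO4.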
Sequence of Lck (h) (P06239 whole entry): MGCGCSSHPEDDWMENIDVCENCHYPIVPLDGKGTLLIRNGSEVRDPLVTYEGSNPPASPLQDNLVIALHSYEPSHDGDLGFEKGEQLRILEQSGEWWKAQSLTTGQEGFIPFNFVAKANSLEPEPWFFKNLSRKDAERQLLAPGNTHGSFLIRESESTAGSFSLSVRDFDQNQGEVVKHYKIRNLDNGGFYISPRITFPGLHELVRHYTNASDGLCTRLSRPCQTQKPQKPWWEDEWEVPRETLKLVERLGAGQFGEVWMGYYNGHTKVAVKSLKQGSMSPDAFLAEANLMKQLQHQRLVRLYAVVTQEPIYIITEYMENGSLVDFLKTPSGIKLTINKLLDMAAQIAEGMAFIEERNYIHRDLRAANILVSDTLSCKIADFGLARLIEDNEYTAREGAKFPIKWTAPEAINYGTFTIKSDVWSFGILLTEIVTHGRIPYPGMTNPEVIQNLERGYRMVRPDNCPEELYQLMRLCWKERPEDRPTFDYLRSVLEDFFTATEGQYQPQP

The target in experiment [2] is T1, Recombinant (1-346) HPK1 (h) (Homo sapiens, UniProt Q92918).
T1 construct: Recombinant (1-346) HPK1 (h) is incubated with 8 mM MOPS pH 7.0
T1 sequence (Q92918 1-346): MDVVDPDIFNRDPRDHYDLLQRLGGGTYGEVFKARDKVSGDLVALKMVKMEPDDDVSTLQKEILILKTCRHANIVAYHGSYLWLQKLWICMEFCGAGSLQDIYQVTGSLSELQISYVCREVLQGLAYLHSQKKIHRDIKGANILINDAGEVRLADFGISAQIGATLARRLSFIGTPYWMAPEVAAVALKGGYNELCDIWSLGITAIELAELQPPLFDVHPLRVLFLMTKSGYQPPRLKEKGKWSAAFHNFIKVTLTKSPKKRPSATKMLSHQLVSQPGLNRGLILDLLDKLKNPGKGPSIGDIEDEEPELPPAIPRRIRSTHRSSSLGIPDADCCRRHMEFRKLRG
The experiment in a line: HPK1 Human STE Kinase Enzymatic Radiometric Assay. Conditions: read-out: HPK1 IC50 nM Range*. Type of experiment: biochemical. The method, then:
A stock solution of 10 mM of test compound is prepared in DMSO. The compound plate was prepared by 3-fold and 9-point serial dilutions. […] The reaction is initiated by The addition of the Mg/ATP mix. After incubation for 40 minutes at RT, the reaction is stopped by the addition of phosphoric acid to a concentration of 0.5%.

For the molecule `Nc1nc(F)c(-c2ccc(C3=CCNCC3)cc2)cc1-c1ccc2c(c1)CCNC2=O` [I-57, 6-(2-amino-6-fluoro-5-(4-(1,2,3,6-tetrahydropyridin-4-yl)phenyl)pyridin-3-yl)-3,4-dihydroisoquinolin-1(2H)-one 2,2,2-trifluoroacetate], the IC50 in experiment [1] was over 1000 nM; in experiment [2] it was 0.1 to 10 nM.
Turning to `CC(C)N1C[C@@H]2C[C@]2(c2ccc(-c3cc(-c4cc5c(cc4F)C(=O)NCC5)c(N)nc3F)cc2)C1` [I-142, 6-(2-amino-6-fluoro-5-(4-((1S,5R)-3-isopropyl-3-azabicyclo[3.1.0]hexan-1-yl)phenyl)pyridin-3-yl)-7-fluoro-3,4-dihydroisoquinolin-1(2H)-one], the IC50 in experiment [1] was over 1000 nM; in experiment [2], 0.1 to 10 nM.
As to `Nc1nc(F)c(-c2ccc(C3(F)CNC3)cc2)cc1-c1ccc2c(c1)CCNC2=O` [I-340, 6-(2-amino-6-fluoro-5-(4-(3-fluoroazetidin-3-yl)phenyl)pyridin-3-yl)-3,4-dihydroisoquinolin-1(2H)-one 2,2,2-trifluoroacetate], the IC50 in experiment [1] was over 1000 nM; in experiment [2], 0.1 to 10 nM.
On the same counts, the results for `Nc1nc(F)c(-c2ccc(N3CCN(CC4CC4)CC3)cc2)cc1-c1cc2c(cn1)C(=O)NCC2` [I-400, 6-(2-amino-5-(4-(4-(cyclopropylmethyl)piper-azin-1-yl)phenyl)-6-fluoropyridin-3-yl)-3,4-dihydro-2,7-naphthyridin-1(2H)-one] are 101 to 1000 nM and 0.1 to 10 nM.
As for `CC(C)N1CCC(Oc2ccc(-c3cc(-c4ccc5c(c4)CCNC5=O)c(N)nc3F)cc2C(F)(F)F)CC1` [I-261, 6-(2-amino-6-fluoro-5-(4-((1-isopropylpiperidin-4-yl)oxy)-3-(trifluoromethyl)phenyl)pyridin-3-yl)-3,4-dihydroisoquinolin-1(2H)-one], the IC50 is over 1000 nM in experiment [1] and 11 to 100 nM in experiment [2].
On the same counts, the results for `Cc1cc2cc(-c3cc(-c4ccc(N5CCN(C(C)C)CC5)cc4)c(F)nc3N)cc(F)c2c(=O)[nH]1` [I-380, 6-(2-amino-6-fluoro-5-(4-(4-isopropylpiperazin-1-yl)phenyl)pyridin-3-yl)-8-fluoro-3-methylisoquinolin-1(2H)-one] are over 1000 nM and 0.1 to 10 nM.
The like results for `Nc1cc2cc(-c3cc(-c4ccc5c(c4)CCNC5=O)c(N)nc3F)c(F)c(Cl)c2cn1` [I-227, 6-(2-amino-5-(3-amino-8-chloro-7-fluoroisoquinolin-6-yl)-6-fluoropyridin-3-yl)-3,4-dihydroisoquinolin-1(2H)-one] were, in that order, over 1000 nM and 11 to 100 nM.
Consider `COCCN1CCCC(c2ccc(-c3cc(-c4ccc5c(c4)CCNC5=O)c(N)nc3F)cc2)C1` (stereo not shown) [I-122, 6-(2-amino-6-fluoro-5-(4-(1-(2-methoxyethyl)piperidin-3-yl)phenyl)pyridin-3-yl)-3,4-dihydroisoquinolin-1(2H)-one], for which the IC50 was over 1000 nM in experiment [1] and 0.1 to 10 nM in experiment [2].
On to `Nc1nc(F)c(-c2ccc(N3CCCC3)cc2)cc1-c1ccc2c(c1)CCNC2=O` [I-59, 6-(2-amino-6-fluoro-5-(4-(pyrrolidin-1-yl)phenyl)pyridin-3-yl)-3,4-dihydroisoquinolin-1(2H)-one], for which the IC50 in experiment [1] is over 1000 nM; in experiment [2], 11 to 100 nM.
The like results for `CN1C[C@H]2C[C@@]2(c2ccc(-c3cc(-c4ccc5c(c4)C(C)(C)NC5=O)c(N)nc3F)cc2)C1` [I-36, 5-(2-amino-6-fluoro-5-(4-((1R,5S)-3-methyl-3-azabicyclo[3.1.0]hexan-1-yl)phenyl)pyridin-3-yl)-3,3-dimethylisoindolin-1-one] were, in that order, over 1000 nM and 0.1 to 10 nM.
Turning to `CC(C)N1CCC(C)(c2ccc(-c3cc(-c4ccc5c(c4)CCNC5=O)c(N)nc3F)cc2)C1` (stereo not shown) [I-164, 6-(2-amino-6-fluoro-5-(4-(1-isopropyl-3-methylpyrrolidin-3-yl)phenyl)pyridin-3-yl)-3,4-dihydroisoquinolin-1(2H)-one], the values for the IC50 in experiment [1] and in experiment [2] were over 1000 nM and 0.1 to 10 nM, respectively.
In the case of `C[C@H]1CN(c2ccc(-c3cc(-c4ccc5c(c4)CCNC5=O)c(N)nc3F)cc2)C[C@H](C)N1C` [I-97, 6-(2-amino-6-fluoro-5-(4-((3S,5S)-3,4,5-trimethylpiperazin-1-yl)phenyl)pyridin-3-yl)-3,4-dihydroisoquinolin-1(2H)-one], the IC50 in experiment [1] is over 1000 nM; in experiment [2], 0.1 to 10 nM.
For the molecule `CC(C)[C@@H]1CN(c2ccc(-c3cc(-c4ccc5c(c4)CCNC5=O)c(N)nc3Cl)c(F)c2)CCO1` [I-137, (R)-6-(2-amino-6-chloro-5-(2-fluoro-4-(2-isopropylmorpholino)phenyl)pyridin-3-yl)-3,4-dihydroisoquinolin-1(2H)-one], the values for the IC50 in experiment [1] and in experiment [2] were over 1000 nM and 11 to 100 nM, respectively.
With `Cc1cc2cc(-c3cc(-c4ccc(N5CCN(C(C)C)CC5)cc4)c(F)nc3N)ccc2c(=O)[nH]1` [I-377, 6-(2-amino-6-fluoro-5-(4-(4-isoporpylpiperazin-1-yl)phenyl)pyridin-3-yl)-3-methylisoquinolin-1(2H)-one], the IC50 in experiment [1] is 101 to 1000 nM; in experiment [2] it was 0.1 to 10 nM.
The like results for `CC(C)[C@@H]1CN(c2ccc(-c3cc(-c4cc(F)c5c(c4)CCNC5=O)c(N)nc3F)cc2)CCO1` [I-351, (R)-6-(2-amino-6-fluoro-5-(4-(2-isopropylmorpholino)phenyl)pyridin-3-yl)-8-fluoro-3,4-dihydroisoquinolin-1(2H)-one] were, in that order, over 1000 nM and 0.1 to 10 nM.
On the same counts, the results for `N#Cc1cc(-c2cc(-c3cc4c(cc3F)C(=O)NCC4)c(N)nc2F)ccc1OC1CCNCC1` [I-289, 5-(6-amino-2-fluoro-5-(7-fluoro-1-oxo-1,2,3,4-tetrahydroisoquinolin-6-yl)pyridin-3-yl)-2-(piperidin-4-yloxy)benzonitrile] are over 1000 nM and 11 to 100 nM.
On the same counts, the results for `COC1CCN(Cc2cc(-c3cc(-c4cc5c(cc4F)C(=O)NCC5)c(N)nc3F)ccc2N2CCOCC2)C1` (stereo not shown) [I-543, 6-(2-amino-6-fluoro-5-(3-((3-methoxypyrrolidin-1-yl)methyl)-4-morpholinophenyl)pyridin-3-yl)-7-fluoro-3,4-dihydroisoquinolin-1(2H)-one] are 11 to 100 nM and 0.1 to 10 nM.
As to `CN1CCCN(S(=O)(=O)c2ccc(-c3cc(-c4ccc5c(c4)CCNC5=O)c(N)nc3F)cc2)CC1` [I-206, 6-(2-amino-6-fluoro-5-(4-((4-methyl-1,4-diazepan-1-yl)sulfonyl)phenyl)pyridin-3-yl)-3,4-dihydroisoquinolin-1(2H)-one], the IC50 was over 1000 nM in experiment [1] and 0.1 to 10 nM in experiment [2].
The like results for `CN1CCN(S(=O)(=O)c2ccc(-c3cc(-c4ccc5c(c4)CCNC5=O)c(N)nc3F)cc2)CC1` [I-207, 6-(2-amino-6-fluoro-5-(4-((4-methylpiperazin-1-yl)sulfonyl)phenyl)pyridin-3-yl)-3,4-dihydroisoquinolin-1(2H)-one] were, in that order, over 1000 nM and 0.1 to 10 nM.
The like results for `CC(C)N1CCN(c2ccc(-c3cc(-c4ccc5c(c4)CCNC5=O)c(N)nc3Cl)cc2)CC1` [I-169, 6-(2-amino-6-chloro-5-(4-(4-isopropylpiperazin-1-yl)phenyl)pyridin-3-yl)-3,4-dihydroisoquinolin-1(2H)-one] were, in that order, over 1000 nM and 11 to 100 nM.

As usually defined, the IC50 is the midpoint of a concentration-inhibition curve.

These data come from patent US20240343704A1, “HALO-SUBSTITUTED AMINO PYRIDINE COMPOUNDS AS INHIBITORS OF THE HAEMATOPOIETIC PROGENITOR KINASE 1 (HPK1)” (priority 2021, published 2024).
